Columns and labels:
Type in all cases: in vivo
[1] = system: barnyardgrass (Echinochloa crus-galli); experiment: Test A preemergence, barnyardgrass; settings: Preemergence; for Barnyardgrass plant response rating: 125 g ai/ha, visual injury on 0 to 100 scale (0 no effect, 100 complete control), approximately 10 days; for Plant response rating, Barnyardgrass: 500 g ai/ha, 0 to 100 scale (0 no effect, 100 complete control)
In short: (§1)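 After sowing into a sand-amended loam, pots for the preemergence test were treated by spraying directly onto soil. In parallel, seedlings at the one- to two-leaf stage and 2 to 10 cm tall were treated postemergence with the identical surfactant-containing formulation.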

kochia (Bassia scoparia) [2] = experiment: Test A preemergence, kochia; settings: Preemergence; for Kochia plant response rating: 125 g ai/ha, visual injury on 0 to 100 scale (0 no effect, 100 complete control), approximately 10 days; for Plant response rating, Kochia: 500 g ai/ha, 0 to 100 scale (0 no effect, 100 complete control)
In short: as §1

[3] = system: ragweed (common ragweed, Ambrosia artemisiifolia); experiment: Test A preemergence, ragweed; settings: Preemergence; for Ragweed plant response rating: 125 g ai/ha, visual injury on 0 to 100 scale (0 no effect, 100 complete control), approximately 10 days; for Plant response rating, Ragweed: 500 g ai/ha, 0 to 100 scale (0 no effect, 100 complete control)
In short: as §1

[4] = system: Ryegrass, Italian (Italian ryegrass, Lolium multiflorum); experiment: Test A preemergence, Ryegrass, Italian; settings: Preemergence; for Ryegrass, Italian plant response rating: 125 g ai/ha, visual injury on 0 to 100 scale (0 no effect, 100 complete control), approximately 10 days; for Plant response rating, Ryegrass, Italian: 500 g ai/ha, 0 to 100 scale (0 no effect, 100 complete control)
In short: as §1

[5] = system: Foxtail, Giant (giant foxtail, Setaria faberi); experiment: Test A preemergence, Foxtail, Giant; settings: Preemergence; for Foxtail, Giant plant response rating: 125 g ai/ha, visual injury on 0 to 100 scale (0 no effect, 100 complete control), approximately 10 days; for Plant response rating, Foxtail, Giant: 500 g ai/ha, 0 to 100 scale (0 no effect, 100 complete control)
In short: as §1

[6] = system: pigweed (Amaranthus retroflexus); experiment: Test A preemergence, pigweed; settings: for Pigweed plant response rating: 125 g ai/ha, visual injury on 0 to 100 scale (0 no effect, 100 complete control), approximately 10 days; for Plant response rating, Pigweed: 500 g ai/ha, 0 to 100 scale (0 no effect, 100 complete control)
In short: (§2)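 Directed soil spray at planting gave the preemergence treatment, while foliar application to one- to two-leaf seedlings (2–10 cm) gave the postemergence one; pots held a loam and sand mixture and chemicals were carried in a non-phytotoxic solvent with surfactant.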

[7] = system: barnyardgrass (Echinochloa crus-galli); experiment: Test A postemergence, barnyardgrass; settings: Postemergence, 0 to 100 scale (0 no effect, 100 complete control); for Plant response rating, Barnyardgrass: 125 g ai/ha; for Barnyardgrass plant response rating: 500 g ai/ha, visual injury vs untreated controls after approx. 10 days
In short: as §2

kochia (Bassia scoparia) [8] = experiment: Test A postemergence, kochia; settings: Postemergence, 0 to 100 scale (0 no effect, 100 complete control); for Plant response rating, Kochia: 125 g ai/ha; for Kochia plant response rating: 500 g ai/ha, visual injury vs untreated controls after approx. 10 days
In short: as §1

[9] = system: ragweed (common ragweed, Ambrosia artemisiifolia); experiment: Test A postemergence, ragweed; settings: Postemergence, 0 to 100 scale (0 no effect, 100 complete control); for Plant response rating, Ragweed: 125 g ai/ha; for Ragweed plant response rating: 500 g ai/ha, visual injury vs untreated controls after approx. 10 days
In short: as §1

[10] = system: Ryegrass, Italian (Italian ryegrass, Lolium multiflorum); experiment: Test A postemergence, Ryegrass, Italian; settings: Postemergence, 0 to 100 scale (0 no effect, 100 complete control); for Plant response rating, Ryegrass, Italian: 125 g ai/ha; for Ryegrass, Italian plant response rating: 500 g ai/ha, visual injury vs untreated controls after approx. 10 days
In short: as §1

[11] = system: Foxtail, Giant (giant foxtail, Setaria faberi); experiment: Test A postemergence, Foxtail, Giant; settings: Postemergence, 0 to 100 scale (0 no effect, 100 complete control); for Plant response rating, Foxtail, Giant: 125 g ai/ha; for Foxtail, Giant plant response rating: 500 g ai/ha, visual injury vs untreated controls after approx. 10 days
In short: as §1

[12] = system: pigweed (Amaranthus retroflexus); experiment: Test A postemergence, pigweed; settings: Postemergence, 0 to 100 scale (0 no effect, 100 complete control); for Plant response rating, Pigweed: 125 g ai/ha; for Pigweed plant response rating: 500 g ai/ha, visual injury vs untreated controls after approx. 10 days
In short: as §1

[13] = system: wheat (Triticum aestivum); experiment: Test A postemergence, wheat; settings: Postemergence, 0 to 100 scale (0 no effect, 100 complete control); for Plant response rating, Wheat: 125 g ai/ha; for Wheat plant response rating: 500 g ai/ha, visual injury vs untreated controls after approx. 10 days
In short: as §2

corn (Zea mays) = experiment: Test A postemergence, corn; settings: Postemergence, 0 to 100 scale (0 no effect, 100 complete control); for Plant response rating, Corn: 125 g ai/ha; for Corn plant response rating: 500 g ai/ha, visual injury vs untreated controls after approx. 10 days
In short: as §1

[14] = system: blackgrass (Alopecurus myosuroides); experiment: Test A postemergence, blackgrass; settings: Postemergence, 0 to 100 scale (0 no effect, 100 complete control); for Plant response rating, Blackgrass: 125 g ai/ha; for Blackgrass plant response rating: 500 g ai/ha, visual injury vs untreated controls after approx. 10 days
In short: as §1

[15] = system: galium (catchweed bedstraw, Galium aparine); experiment: Test A postemergence, galium; settings: Postemergence, 0 to 100 scale (0 no effect, 100 complete control); for Plant response rating, Galium: 125 g ai/ha; for Galium plant response rating: 500 g ai/ha, visual injury vs untreated controls after approx. 10 days
In short: as §2

| Compound | Barnyardgrass plant response rating [1] | Plant response rating, Barnyardgrass [1] | Kochia plant response rating (kochia (Bassia scoparia) [2]) | Plant response rating, Kochia (kochia (Bassia scoparia) [2]) | Ragweed plant response rating [3] | Plant response rating, Ragweed [3] | Ryegrass, Italian plant response rating [4] | Plant response rating, Ryegrass, Italian [4] | Foxtail, Giant plant response rating [5] | Plant response rating, Foxtail, Giant [5] | Pigweed plant response rating [6] | Plant response rating, Pigweed [6] | Plant response rating, Barnyardgrass [7] | Barnyardgrass plant response rating [7] | Plant response rating, Kochia (kochia (Bassia scoparia) [8]) | Kochia plant response rating (kochia (Bassia scoparia) [8]) | Plant response rating, Ragweed [9] | Ragweed plant response rating [9] | Plant response rating, Ryegrass, Italian [10] | Ryegrass, Italian plant response rating [10] | also measured |
| --- | --- | --- | --- | --- | --- | --- | --- | --- | --- | --- | --- | --- | --- | --- | --- | --- | --- | --- | --- | --- | --- |
| Cc1cc(C)c(N(S(=O)(=O)C(F)(F)F)S(=O)(=O)C(F)(F)F)cc1C1=NOC2(CCOCC2)C1 [Compound 178] | 90 | 100 | 90 | 100 | 80 | 90 | 90 | 100 | 90 | 100 | 100 | 100 | 40 | 90 | 20 | 70 | 40 | 80 | 0 | 30 | Plant response rating, Foxtail, Giant [11]: 0; Foxtail, Giant plant response rating [11]: 20; Plant response rating, Pigweed [12]: 60; Pigweed plant response rating [12]: 90; Plant response rating, Wheat [13]: 10; Wheat plant response rating [13]: 30; Plant response rating, Corn (corn (Zea mays)): 0; Corn plant response rating (corn (Zea mays)): 10; Plant response rating, Blackgrass [14]: 0; Blackgrass plant response rating [14]: 0; Plant response rating, Galium [15]: 80; Galium plant response rating [15]: 90 |
| Cc1cc(C(F)(F)F)c(C(=O)N2CCCCC2)cc1NS(=O)(=O)C(F)(F)F [Compound 180] | 0 | 80 | 0 | 0 | 20 | 70 | 0 | 50 | 0 | 90 | 20 | 70 | 0 | 10 | 10 | 40 | 20 | 70 | 0 | 0 | Plant response rating, Foxtail, Giant [11]: 10; Foxtail, Giant plant response rating [11]: 10; Plant response rating, Pigweed [12]: 50; Pigweed plant response rating [12]: 70; Plant response rating, Wheat [13]: 0; Wheat plant response rating [13]: 0; Plant response rating, Corn (corn (Zea mays)): 0; Corn plant response rating (corn (Zea mays)): 0; Plant response rating, Blackgrass [14]: 0; Blackgrass plant response rating [14]: 20; Plant response rating, Galium [15]: 70; Galium plant response rating [15]: 90 |
| C#CCN(CC#C)C(=O)c1cc(N(S(=O)(=O)C(F)(F)F)S(=O)(=O)C(F)(F)F)c(C)cc1C [Compound 181] | 90 | 100 | 60 | 100 | 50 | 90 | 80 | 90 | 100 | 100 | 40 | 80 | 80 | 90 | 30 | 80 | 80 | 90 | 70 | 90 | Plant response rating, Foxtail, Giant [11]: 60; Foxtail, Giant plant response rating [11]: 90; Plant response rating, Pigweed [12]: 40; Pigweed plant response rating [12]: 80; Plant response rating, Wheat [13]: 50; Wheat plant response rating [13]: 80; Plant response rating, Corn (corn (Zea mays)): 10; Corn plant response rating (corn (Zea mays)): 80; Plant response rating, Blackgrass [14]: 10; Blackgrass plant response rating [14]: 30; Plant response rating, Galium [15]: 60; Galium plant response rating [15]: 70 |
| Cc1cc(Cl)c(C2=NOC(C)(C)C2)cc1NS(=O)(=O)C(F)(F)F [Compound 183] | 90 | 100 | 20 | 60 | 20 | 90 | 70 | 100 | 50 | 70 | 70 | 80 | 20 | 70 | 10 | 50 | 60 | 80 | 0 | 0 | Plant response rating, Foxtail, Giant [11]: 0; Foxtail, Giant plant response rating [11]: 10; Plant response rating, Pigweed [12]: 30; Pigweed plant response rating [12]: 30; Plant response rating, Wheat [13]: 0; Wheat plant response rating [13]: 0; Plant response rating, Corn (corn (Zea mays)): 0; Corn plant response rating (corn (Zea mays)): 30; Plant response rating, Blackgrass [14]: 10; Blackgrass plant response rating [14]: 10; Plant response rating, Galium [15]: 70; Galium plant response rating [15]: 90 |

— patent US20230278972A1, “SUBSTITUTED HALOALKYL SULFONANILIDE HERBICIDES” (FMC Corporation, priority 2020, published 2023)
